Earlier results in patent publication US20140045801A1, “PRAMIPEXOLE TRANSDERMAL DELIVERY FOR SEVERE HEADACHES” (MYLAN INC., priority 2012, published 2014).

Conditions: free base; moderate lipophilicity

Question: Which “log P” value does the source give for CCCN[C@H]1CCc2nc(N)sc2C1 [Pramipexole free base, Pramipexole] here?
Answer: 2.35
